Experimental data: PubChem BioAssay AID493181 (Southern Research Specialized Biocontainment Screening …, 2011)
The source made the active and inactive calls. How the calls were made is not given here. Where a SMILES comes first, the peptide text is derived from it. The star is where a group is joined. Cbz = O=C(OCc1ccccc1)*

What was measured:
[1] = tested on: M. tuberculosis H37Rv growth inhibition, no glycerol; assay: M. tuberculosis growth inhibition, confirmation, H37Rv, purified and synthesized compounds (AID 493181); conditions: for IC90: 90% growth inhibition concentration
[2] = as above; conditions: M. tuberculosis H37Rv growth inhibition, no glycerol; at 100 µM (top of the series)

Compound	IC50 [1] [nM]	IC90 [1] [nM]	inhibition [2]
CC(=NCc1ccc2c(c1)OCO2)C1=C(O)c2ccccc2C1=O	< 200	2600	–
COC(=O)CCc1nc2c(C#N)c(-c3ccc(Cl)cc3)ccn2n1	760	7910	–
Oc1ccccc1/C=N/Nc1ccnc(SCc2ccccc2)n1	–	–	0.65% (inactive)
CCc1ccc(/C=C2/C(=O)N(C)C(=S)N2CC(=O)OC)s1	2950	7160	–
COC(=O)C(C)Oc1ccc(-c2nccc(-c3ccccn3)n2)cc1 (centres undefined)	1490	3310	–
CNc1nc(SCc2ccccc2Cl)nc2c1CCCC2	< 200	2320	–
CCC(C)Nc1ccc(NC(C)CC)cc1 (centres undefined)	1100	1500	–
CCOC(=O)c1ccc(NC(=O)Cn2ncc(Cl)c(Cl)c2=O)cc1	< 200	1550	–
CCOC(=O)COc1ccc(/C=C2\NC(=S)N(CC)C2=O)cc1	1930	3450	–
COC(=O)c1cc(=O)n(-c2ccc(F)cc2)c(=Nc2ccc(F)cc2)s1	< 200	4510	–
O=C(/C=C\c1cccs1)N1CCN(Cc2ccc3c(c2)OCO3)CC1	< 200	2780	–
Cc1ccc2ccc3ccc(C)nc3c2n1	< 200	920	–
O=C1C(Br)=Cc2cccc3cccc1c23	< 200	< 200	–
O=C(CSc1nc2ccccc2c(=O)[nH]1)NCc1ccc(Cl)cc1	390	1820	–
O=C(CSc1nc2ccccc2c(=O)[nH]1)NC1CCCCC1	< 200	< 200	–
Cc1cccc(/C=C/C(=O)c2ccc([N+](=O)[O-])o2)c1	< 200	< 200	–
CC(C)NC(=O)c1sc(=S)n2c1[nH]c(=O)c1ccc(C(=O)NCCc3ccc(Cl)cc3)cc12	< 200	1510	–
O=C(NCC(c1cccs1)N1CCOCC1)c1cc([N+](=O)[O-])cc([N+](=O)[O-])c1 (centres undefined)	< 200	780	–
Cc1ccc(NC(=O)C2C3/C=C\CCCCC32)cc1C (centres undefined)	1480	1680	–
CCOC(=O)CNC(=O)[C@H](Cc1ccccc1)NC(=O)OCc1ccccc1 (Cbz-Phe-Gly-OEt)	1410	2110	–
COC(=O)C1CC(=O)N(c2ccc(OCc3ccccc3Cl)cc2)C1 (centres undefined)	830	8400	–
c1ccc(/N=C2\N=C(Nc3ccccn3)c3ccccc32)nc1	< 200	< 200	–
O=C(/C=C/c1ccccc1)N1CCN(CCN2C(=O)c3cccc4cccc(c34)C2=O)CC1	3170	> 100000	–
CCOC(=O)COn1c2c(c3c4no[n+]([O-])c4ccc31)CCCC2	2140	3780	–
Cc1nn2c(NCc3ccccn3)cc(C(C)C)nc2c1-c1ccccc1	1480	2670	–
CCOC(=O)C(C)Sc1ncnc2c1nnn2-c1ccc(F)cc1 (centres undefined)	1380	3380	–
COc1cc(NC(=O)C/C(C)=N/NC(=O)c2ccccn2)c(OC)cc1Cl	3690	8340	–
Cc1nc(SCC(=O)NC2CCCCC2)[nH]c(=O)c1C	< 200	540	–
S=c1nc[nH]c2nc[nH]c12	1500	1650	–
Cc1ccc2c(c1)c(C1=c3ccccc3=NC1=O)c(O)n2C	840	1470	–
